Where “and” joins values, the source holds several entries; their conditions need not be identical. Equal entries are not always repeated.
Legend:
[1] = Rat pharmacokinetic study; conditions: for AUC(0-inf): AUCinf; for Vd: Vdss
CYP3A4/5 = assay: Reversible CYP inhibition in human liver microsomes
[2] = male, Wistar-Hannover, rat, plasma, iv, 2 mg/kg, Mean, PF-00835231 active dosed 2mg/kg intravenous
[3] = male, Wistar-Hannover, rat, plasma, iv, 2 mg/kg, PF-00835231 active dosed 2mg/kg intravenous, individual rats
[4] = rat, PF-00835231 active dosed 2mg/kg intravenous, individual rats, 2 mg/kg

COc1cccc2[nH]c(C(=O)N[C@@H](CC(C)C)C(=O)N[C@@H](C[C@@H]3CCNC3=O)C(=O)CO)cc12 [PF-00835231]
Vdss ([1]; Rat, 2mg/kg intravenous, individual animals, 2 mg/kg): 1.02 L/kg and 0.58 L/kg | AUC(0-inf) [1, 2]: 1250 ng·h/mL | AUC(0-inf) [1, 3]: 1230 ng·h/mL | clearance ([1]; male, Wistar-Hannover, rat, plasma, iv, 2 mg/kg, Clearance, Mean, PF-00835231 active dosed 2mg/kg intravenous): 27 mL/min/kg | clearance ([1]; male, Wistar-Hannover, rat, plasma, iv, 2 mg/kg, Clearance, PF-00835231 active dosed 2mg/kg intravenous, individual rats): 27.1 mL/min/kg | half-life ([1]; male, Wistar-Hannover, rat, plasma, iv, 2 mg/kg, Half life, Mean, PF-00835231 active dosed 2mg/kg intravenous): 43.1 min | half-life ([1]; male, Wistar-Hannover, rat, plasma, iv, 2 mg/kg, Half life, PF-00835231 active dosed 2mg/kg intravenous, individual rats): 39.2 min | half-life ([1]; male, Wistar-Hannover, rat, plasma, iv, 2 mg/kg, Terminal T1/2, rat IV, PF-07304814 […] (n=2, range), PF-00835231 2mg/kg (n=3, ± SD)): < 120 min | Vd ([1]; male, Wistar-Hannover, rat, plasma, iv, 2 mg/kg, 2mg/kg intravenous, individual animals): 0.637 L/kg | Vd ([1]; male, Wistar-Hannover, rat, plasma, iv, 2 mg/kg, Mean, 2mg/kg intravenous): 0.746 L/kg | Vd [1, 2]: 0.746 L/kg | Vd [1, 3]: 0.637 L/kg | Vd ([1]; male, Wistar-Hannover, rat, plasma, iv, 2 mg/kg, Vdss input): 0.75 L/kg | Vd ([1]; male, Wistar-Hannover, rat, plasma, iv, 2 mg/kg, rat IV, PF-07304814 […] (n=2, range), PF-00835231 2mg/kg (n=3, ± SD)): < 1.5 L/kg | clearance ([1]; male, Wistar-Hannover, rat, plasma, iv, CL, rat IV, PF-07304814 […] (n=2, range), PF-00835231 2mg/kg (n=3, ± SD)): 27 ± 3.1 mL/min/kg | half-life ([1]; male, Wistar-Hannover, rat, plasma, iv, Terminal T1/2, rat IV, PF-07304814 […] (n=2, range), PF-00835231 2mg/kg (n=3, ± SD)): 43.2 ± 7.2 min | Vd ([1]; male, Wistar-Hannover, rat, plasma, iv, rat IV, PF-07304814 […] (n=2, range), PF-00835231 2mg/kg (n=3, ± SD)): 0.75 ± 0.24 L/kg | bioavailability ([1]; male, Wistar-Hannover, rat, plasma, po, 2 mg/kg, Oral F%, rat, 2mg/kg PO vs IV): 1.4 ± 0.76% | AUC(0-t) ([1]; male, Wistar-Hannover, rat, plasma, po, 5 mg/kg, AUCt, Mean, PF-00835231 5mg/kg PO dose): 12.8 ng·h/mL | Urine Concn ([1]; rat urine 0-7 h, PF-00835231 active dosed 2mg/kg intravenous, individual rats, 2 mg/kg): 29200 ng/mL and 3180 ng/mL and 6320 ng/mL | Urine Concn ([1]; rat urine 7-24 h, PF-00835231 active dosed 2mg/kg intravenous, individual rats, 2 mg/kg): 234 ng/mL and 85.6 ng/mL and 368 ng/mL | AUCt ([1]; rat, PF-00835231 5mg/kg PO dose, individual rats, 5 mg/kg): 5.75 ng·h/mL and 18.5 ng·h/mL and 14.1 ng·h/mL | AUCinf [1, 4]: 1110 ng·h/mL and 1400 ng·h/mL | Half life [1, 4]: 51.4 min and 38.7 min | Vdss [1, 4]: 1.02 L/kg and 0.58 L/kg | clearance [1, 4]: 30 mL/min/kg and 23.8 mL/min/kg | Oral F% ([1]; rat, 2mg/kg PO vs IV, 2 mg/kg): < 2% | Percent of Control Activity (CYP3A4/5; CYP 3A4/5 (mdz), 0.214 µM, 30-Minute Preincubation): 105.3% | Percent of Control Activity (CYP3A4/5; CYP 3A4/5 (mdz), 0.979 µM, 30-Minute Preincubation): 106.9% | Percent of Control Activity (CYP3A4/5; CYP 3A4/5 (mdz), 2.09 µM, 30-Minute Preincubation): 110.4% | Percent of Control Activity (CYP3A4/5; CYP 3A4/5 (mdz), 4.48 µM, 30-Minute Preincubation): 94.3% | Percent of Control Activity (CYP3A4/5; CYP 3A4/5 (mdz), 20.5 µM, 30-Minute Preincubation): 83.5% | Percent of Control Activity (CYP3A4/5; CYP 3A4/5 (mdz), 20.5 µM, Zero-Minute Preincubation): 117.3% | Percent of Control Activity (CYP3A4/5; CYP 3A4/5 (mdz), 43.8 µM, 30-Minute Preincubation): 84.8% | Percent of Control Activity (CYP3A4/5; CYP 3A4/5 (mdz), 93.5 µM, 30-Minute Preincubation): 72.6% | Percent of Control Activity (CYP3A4/5; CYP 3A4/5 (mdz), 200 µM, 30-Minute Preincubation): 50.6% and 46.7% | Percent of Control Activity (CYP3A4/5; CYP 3A4/5 (mdz), 200 µM, Zero-Minute Preincubation): 109.5% | Percent of Control Activity (CYP3A4/5; CYP 3A4/5 (tst), 0.214 µM, 30-Minute Preincubation): 110.1% | Percent of Control Activity (CYP3A4/5; CYP 3A4/5 (tst), 0.214 µM, Zero-Minute Preincubation): 116.0% and 141.9% | Percent of Control Activity (CYP3A4/5; CYP 3A4/5 (tst), 0.979 µM, 30-Minute Preincubation): 122.3% | Percent of Control Activity (CYP3A4/5; CYP 3A4/5 (tst), 0.979 µM, Zero-Minute Preincubation): 120.0% and 100.0% | Percent of Control Activity (CYP3A4/5; CYP 3A4/5 (tst), 2.09 µM, 30-Minute Preincubation): 146.9% and 144.6% and 107.9% | Percent of Control Activity (CYP3A4/5; CYP 3A4/5 (tst), 2.09 µM, Zero-Minute Preincubation): 128.1% | Percent of Control Activity (CYP3A4/5; CYP 3A4/5 (tst), 4.48 µM, 30-Minute Preincubation): 142.0% and 164.4%

From paper PMC8523698, “Preclinical characterization of an intravenous coronavirus 3CL protease inhibitor for the potential treatment of COVID19” (Nature Communications, 2021)
